Key:
[1] = Isoastringency: isointensity of astringent perception with a 700 μM aqueous catechin solution; type: in vivo; details: versus 700 μM aqueous catechin solution (pH 4.5)
[2] = Sensorial taste evaluation: taste thresholds by modified duo test with a sensory panel; type: in vivo; details: for taste threshold: modified duo test, sample versus tap water; for threshold concentration, times lower than the threshold concentration of catechin: relative to catechin
Source text: Sensorial taste evaluation of (E)-6-(3-hydroxyphenyl)-(4-O-β-D-glucopyranoside)hex-5-en-2-one and (3E,5E)-6-[3-Hydroxy-4-O-β-D-glucopyranoside-phenyl]-hexa-3 ,5-dien-2-one
For evaluation of taste thresholds of the isolated substances, a modified duo test is used. […] As astringent substances can remain longer on the tongue or possibly can be fortified by addition of tap water, the assessed dilutions (tap water and assay) were given on two different regions of the tongue to compare the taste impressions. The panelists had to determine the dilution at which a difference between sample and tap water could be found.

SMILES: CC(=O)/C=C/C=C/c1ccc(O[C@@H]2OC(CO)[C@@H](O)C(O)C2O)c(O)c1 (stereo partly drawn) [(3E,5E)-6-[3-Hydroxy-4-O-β-D-glucopyranoside-phenyl]-hexa-3,5-dien-2-one]
- isoastringency: concentration needed to reach isointensity of astringent perception with catechin solution [1]: 200 µmol/L
- taste threshold [2]: 4.0 µmol/L
- threshold concentration, times lower than the threshold concentration of catechin [2]: about 100 times

SMILES: CC(=O)CC/C=C/c1ccc(O[C@@H]2OC(CO)[C@@H](O)C(O)C2O)c(O)c1 (stereo partly drawn) [(E)-6-(3-hydroxyphenyl)-(4-O-β-D-glucopyranoside)hex-5-en-2-one]
- isoastringency: concentration needed to reach isointensity of astringent perception with catechin solution [1]: 120 µmol/L
- taste threshold [2]: 4.3 µmol/L
- threshold concentration, times lower than the threshold concentration of catechin [2]: about 100 times

From US20090069551A1, “Flavorant Compounds” (priority 2006, published 2009)
